Read-outs that look alike come from different tables or passages of the source.
Legend:
[1] = test system: mixture of Pseudomonas aeruginosa, Klebsiella pneumoniae, Staphylococcus aureus, and Bacillus subtilis; test: Growth inhibition assay; assay type: cell-based; settings: for % Inhibition of growth by CTAC: Table 3, single active
Source text: The growth inhibition assay used in the Examples measures inhibition of growth (or lack thereof) of a microbial consortium. Inhibition of growth can be the result of killing of the cells (so no growth occurs), killing of a significant portion of the populations of cells so that regrowth requires a prolonged time, or inhibition of growth without killing (stasis). Regardless of the mechanism of action, the impact of a biocide (or combination of biocides) can be measured over time on the basis of an increase in the size of the community.
The assay measures the efficacy of one or more biocides at preventing growth of a consortium of bacteria in a dilute mineral salts medium. The medium contains (in mg/l) the following components: FeCl3.6H2O (1); CaCl2.2H2O (10); MgSO4.7H2O (22.5); (NH4)2SO4 (40); KH2PO4 (10); K2HPO4 (25.5); Yeast Extract (10); and glucose (100). After all components are added to deionized water, the pH of the medium is adjusted to 7.5. Following filter sterilization, aliquots are dispensed in 100 ul quantities to sterile microtiter plate wells. Dilutions of DBMAL and/or “Biocide B” are then added to the microtiter plate. After preparing the combinations of actives as illustrated below, each well is inoculated with 100 μl of a cell suspension containing ca. 1×10^6 cells per milliliter of a mixture of Pseudomonas aeruginosa, Klebsiella pneumoniae, Staphylococcus aureus, and Bacillus subtilis. The final total volume of medium in each well is 300 μl. […] The resulting matrix allows testing of eight concentrations of each active and 64 combinations of actives in the ratios (of actives).
Controls (not shown) contain the medium with no biocide added. After preparing the combinations of actives as illustrated above, each well is inoculated with 100 μl of a cell suspension containing ca. 1×10^6 cells per milliliter of a mixture of Pseudomonas aeruginosa, Klebsiella pneumoniae, Staphylococcus aureus, and Bacillus subtilis. The final total volume of medium in each well is 300 μl.
Immediately after the microtiter plates are prepared, the optical density (OD) readings for each well is measured at 580 nm and the plates are then incubated at 37° C. for 24 hr. After the incubation period, the plates are gently agitated before OD580 values are collected. The OD580 values at T0 are subtracted from T24 values to determine the total amount of growth (or lack thereof) that occurs. These values are used to calculate the percent inhibition of growth caused by the presence of each biocide and each of the 64 combinations. A 90% inhibition of growth is used as a threshold for calculating synergy index (SI) values with the following equation: Synergy Index=MDBMAL/CDBMAL+MB/CB
where • CDBMAL: Concentration of DBMAL required to inhibit ˜90% of bacterial growth when used alone • CB: Concentration of biocide (B) required to inhibit ˜90% of bacterial growth when used alone. • MDBMAL: Concentration of DBMAL required to inhibit ˜90% of bacterial growth when used in combination with biocide (B). • MB: Concentration of biocide (B) required to inhibit ˜90% of bacterial growth when used in combination with DBMAL The SI values are interpreted as follows: • SI<1: Synergistic combination • SI=1: Additive combination • SI>1: Antagonistic combination

[2] = test system: mixture of Pseudomonas aeruginosa ATCC 10145 and Staphylococcus aureus ATCC 6538; test: Kill assay (MBC, synergy index); assay type: cell-based; settings: 37° C., 2 hours
Description: This assay is used as a preliminary evaluation of synergy between the actives. The procedure is as follows. A mineral salts solution (0.2203 g of CaCl2, 0.1847 g of MgSO4, and 0.2033 g of NaHCO3 in 1 L water, approximately pH 8) is inoculated with equal amounts (about 10^7 CFU/ml) of a mixture of Pseudomonas aeruginosa ATCC 10145 and Staphylococcus aureus ATCC 6538. Aliquots of the cell suspension are then treated with 2,2-dibromomalonamide (“DBMAL”), […], and their combinations at various concentration levels. […] The MBC values are then used to calculate a synergy index (SI) values.
Summaries of the kill assay results are presented in the individual Examples. In each table, MBC values for each biocide and the blends tested are presented Likewise, the Synergy Index (“SI”) values for the combinations are listed. SI is calculated with the following equation: Synergy Index=Ca/CA+Mb/CB […]

**Q.** For “1-(3-chloroallyl)-3,5,7-triaza-1-azoniaadamantane chloride [CTAC]”, which “% Inhibition of growth by CTAC” value ([1]; CTAC Concn. 3.91 mg/l, 24 h) is on record?
**A.** 0%

**Q.** What about the “% Inhibition of growth by CTAC” value ([1]; CTAC Concn. 7.81 mg/l, 24 h) of the same compound?
**A.** 18%

**Q.** What about the “% Inhibition of growth by CTAC” value ([1]; CTAC Concn. 15.63 mg/l, 24 h) of the same compound?
**A.** 20%

**Q.** What about the “% Inhibition of growth by CTAC” value ([1]; CTAC Concn. 31.25 mg/l, 24 h) of the same compound?
**A.** 21%

**Q.** And the “% Inhibition of growth by CTAC” value ([1]; CTAC Concn. 62.5 mg/l, 24 h)?
**A.** 0%

**Q.** What about the “% Inhibition of growth by CTAC” value ([1]; CTAC Concn. 125.0 mg/l, 24 h) of the same compound?
**A.** 100%

**Q.** And the “% Inhibition of growth by CTAC” value ([1]; CTAC Concn. 250.0 mg/l, 24 h)?
**A.** 100%

**Q.** And the “% Inhibition of growth by CTAC” value ([1]; CTAC Concn. 500.0 mg/l, 24 h)?
**A.** 100%

**Q.** How did the inhibition at 7.81 µg/mL ([1]; 24 h, 4,4-D alone 7.81 mg/l, read-out: % Inhibition of growth by 4,4-D) turn out when CC1(C)COCN1 [4,4-D, 4,4-Dimethyloxazolidine] was run?
**A.** 0%

**Q.** What about the inhibition at 15.63 µg/mL ([1]; 24 h, 4,4-D alone 15.63 mg/l, read-out: % Inhibition of growth by 4,4-D) of the same compound?
**A.** 2%

**Q.** What about the inhibition at 31.25 µg/mL ([1]; 24 h, 4,4-D alone 31.25 mg/l, read-out: % Inhibition of growth by 4,4-D) of the same compound?
**A.** 13%

**Q.** And the inhibition at 62.5 µg/mL ([1]; 24 h, 4,4-D alone 62.5 mg/l, read-out: % Inhibition of growth by 4,4-D)?
**A.** 98%

**Q.** What about the inhibition at 125 µg/mL ([1]; 24 h, 4,4-D alone 125.0 mg/l, read-out: % Inhibition of growth by 4,4-D) of the same compound?
**A.** 100%

**Q.** What about the inhibition at 250 µg/mL ([1]; 24 h, 4,4-D alone 250.0 mg/l, read-out: % Inhibition of growth by 4,4-D) of the same compound?
**A.** 99%

**Q.** And the inhibition at 500 µg/mL ([1]; 24 h, 4,4-D alone 500.0 mg/l, read-out: % Inhibition of growth by 4,4-D)?
**A.** 100%

**Q.** And the inhibition at 1000 µg/mL ([1]; 24 h, 4,4-D alone 1000.0 mg/l, read-out: % Inhibition of growth by 4,4-D)?
**A.** 100%

**Q.** Which results are given for ClC=CC[N+]12CN3CN(CN(C3)C1)C2 [CTAC, 1-(3-chloroallyl)-3,5,7-triaza-1-azoniaadamantane chloride]?
**A.** inhibition at 1.95 µg/mL ([1]; 24 h, Table 6, CTAC alone 1.95 mg/l): 0%; inhibition at 3.91 µg/mL ([1]; 24 h, Table 6, CTAC alone 3.91 mg/l): 0%; inhibition at 7.81 µg/mL ([1]; 24 h, Table 6, CTAC alone 7.81 mg/l, read-out: % Inhibition of growth by CTAC): 9%; inhibition at 15.625 µg/mL ([1]; 24 h, Table 6, CTAC alone 15.625 mg/l): 0%; inhibition at 31.25 µg/mL ([1]; 24 h, Table 6, CTAC alone 31.25 mg/l, read-out: % Inhibition of growth by CTAC): 35%; inhibition at 62.5 µg/mL ([1]; 24 h, Table 6, CTAC alone 62.5 mg/l, read-out: % Inhibition of growth by CTAC): 41%; inhibition at 125 µg/mL ([1]; 24 h, Table 6, CTAC alone 125.0 mg/l, read-out: % Inhibition of growth by CTAC): 100%; inhibition at 250 µg/mL ([1]; 24 h, Table 6, CTAC alone 250.0 mg/l, read-out: % Inhibition of growth by CTAC): 98%

**Q.** How did the “% Inhibition of growth by EBO” value ([1]; EBO alone 7.81 mg/l, 24 h) turn out when CCC12COCN1COC2 [EBO, 7-ethyl bicyclooxazolidine] was run?
**A.** 0%

**Q.** And the “% Inhibition of growth by EBO” value ([1]; EBO alone 15.63 mg/l, 24 h)?
**A.** 0%

**Q.** What about the “% Inhibition of growth by EBO” value ([1]; EBO alone 31.25 mg/l, 24 h) of the same compound?
**A.** 0%

**Q.** And the “% Inhibition of growth by EBO” value ([1]; EBO alone 62.5 mg/l, 24 h)?
**A.** 3%

**Q.** And the “% Inhibition of growth by EBO” value ([1]; EBO alone 125.0 mg/l, 24 h)?
**A.** 10%

**Q.** And the “% Inhibition of growth by EBO” value ([1]; EBO alone 250.0 mg/l, 24 h)?
**A.** 71%

**Q.** What about the “% Inhibition of growth by EBO” value ([1]; EBO alone 500.0 mg/l, 24 h) of the same compound?
**A.** 96%

**Q.** And the “% Inhibition of growth by EBO” value ([1]; EBO alone 1000.0 mg/l, 24 h)?
**A.** 100%

**Q.** Which “MBC (minimum biocide concentration needed to completely kill), biocide alone” value [2] does the source give for O=CCCCC=O [Glut, glutaraldehyde] here?
**A.** 29.6 µg/mL

**Q.** What about the “concentration needed to provide at least 90% inhibition of growth” value ([1]; biocide alone, 24 h) of the same compound?
**A.** 125 mg/L

**Q.** CCN1CN(CC)CN(CC)C1 [TEHT, 1,3,5-Triethylhexahydro-s-triazine] was tested. Which inhibition at 0.19 µg/mL ([1]; 24 h, TEHT alone 0.19 mg/l, read-out: % Inhibition of growth by TEHT) did it give?
**A.** 10%

**Q.** What about the inhibition at 0.39 µg/mL ([1]; 24 h, TEHT alone 0.39 mg/l, read-out: % Inhibition of growth by TEHT) of the same compound?
**A.** 11%

**Q.** What about the inhibition at 0.78 µg/mL ([1]; 24 h, TEHT alone 0.78 mg/l, read-out: % Inhibition of growth by TEHT) of the same compound?
**A.** 10%

**Q.** And the inhibition at 1.56 µg/mL ([1]; 24 h, TEHT alone 1.56 mg/l, read-out: % Inhibition of growth by TEHT)?
**A.** 22%

**Q.** What about the inhibition at 3.13 µg/mL ([1]; 24 h, TEHT alone 3.13 mg/l, read-out: % Inhibition of growth by TEHT) of the same compound?
**A.** 49%

**Q.** And the inhibition at 6.25 µg/mL ([1]; 24 h, TEHT alone 6.25 mg/l, read-out: % Inhibition of growth by TEHT)?
**A.** 82%

**Q.** And the inhibition at 12.5 µg/mL ([1]; 24 h, TEHT alone 12.5 mg/l, read-out: % Inhibition of growth by TEHT)?
**A.** 98%

**Q.** What about the inhibition at 25 µg/mL ([1]; 24 h, TEHT alone 25.0 mg/l, read-out: % Inhibition of growth by TEHT) of the same compound?
**A.** 100%

**Q.** What does the source list for O=[N+]([O-])C(CO)(CO)CO [TN, tris(hydroxymethyl)nitromethane]?
**A.** inhibition at 7.81 µg/mL ([1]; 24 h, TN alone 7.81 mg/l, read-out: % Inhibition of growth by TN): 0%; inhibition at 15.63 µg/mL ([1]; 24 h, TN alone 15.63 mg/l, read-out: % Inhibition of growth by TN): 4%; inhibition at 31.25 µg/mL ([1]; 24 h, TN alone 31.25 mg/l, read-out: % Inhibition of growth by TN): 0%; inhibition at 62.5 µg/mL ([1]; 24 h, TN alone 62.5 mg/l, read-out: % Inhibition of growth by TN): 50%; inhibition at 125 µg/mL ([1]; 24 h, TN alone 125.0 mg/l, read-out: % Inhibition of growth by TN): 100%; inhibition at 250 µg/mL ([1]; 24 h, TN alone 250.0 mg/l, read-out: % Inhibition of growth by TN): 100%; inhibition at 500 µg/mL ([1]; 24 h, TN alone 500.0 mg/l, read-out: % Inhibition of growth by TN): 100%; inhibition at 1000 µg/mL ([1]; 24 h, TN alone 1000.0 mg/l, read-out: % Inhibition of growth by TN): 100%

Source: patent US8747873B2, “Compositions of dibromomalonamide and their use as biocides” (Dow Global Technologies LLC, priority 2012, dated 2014)
